Data set [1] concerns BALB/c mice. The data set is described as follows: Toxicity in terms of splenomegaly and local granuloma. Format: in vivo. Here is the method: with adjuvants: A, (PBS); B, […]; C, Incomplete Freund's adjuvant (IFA); D, phytol; E, Complete Freund's adjuvant (CFA); and F, reduced phytol (phytanol).
The efficacy and side effects (such as toxicity, carcinogenic properties, and autoimmunogenic properties) of phytol and reduced phytol or phytanol (H-phytol) as adjuvants were compared with those of other known adjuvants that serve as the gold standard. Groups of 8-12 week old and gender matched BALB/c mice (n=21) were injected intraperitoneally with phytol (25-50 μl=20-40 mg/ml injected vaccine formulation) to determine toxicity. Similar studies were done with reduced phytol (phytanol) using 11 BALB/c mice. […].

For data set [2], the system named is BALB/c mice. The data set is described as follows: Toxicity (LD50) after intraperitoneal injection. To be noted: mg/ml injected vaccine formulation. The data set is classed as in vivo. Here is the method:
The efficacy and side effects (such as toxicity, carcinogenic properties, and autoimmunogenic properties) of phytol and reduced phytol or phytanol (H-phytol) as adjuvants were compared with those of other known adjuvants that serve as the gold standard. Groups of 8-12 week old and gender matched BALB/c mice (n=21) were injected intraperitoneally with phytol (25-50 μl=20-40 mg/ml injected vaccine formulation) to determine toxicity. Similar studies were done with reduced phytol (phytanol) using 11 BALB/c mice. LD50 for phytol is 40 mg/ml and for phytanol >40 mg/ml. For comparison, equivalent concentrations/volumes of other Freund's adjuvants, a mineral oil pristane and a control (phosphate buffered saline) were tested for toxicity in terms of splenomegaly and local granuloma.

The subject of another data set is DNA. The data set is described as follows: Autoimmune reactivity assessment (anti-DNA antibody response). The data set is classed as in vivo, mice. From the text:
In each set of experiments, groups of 5 mice were primed with an environmental antigen phthalate (Lim and Ghosh, Immunology, 110:482-492, 2003) as a conjugate (mg/ml) with keyhole limpet hemocyanin (KLH) in different adjuvants as shown in FIG. 5.

For a further data set, the system named is 2C3 B-cell lymphoma. The data set can be described thus: Induction of tumor-specific cytotoxic T cells (51Cr-release CTL assay). Format: in vivo. To be noted: BALB/c mice, intraperitoneal adjuvant, live 2C3 tumor challenge, FIG. 8. On the procedure: A number of mice (BALB/c mice) were divided into four groups of six mice each. Each group was treated with intraperitoneal injections of one of […] adjuvant preparations. The adjuvant preparations were selected from IFA, phytol, and phytanol. A control group was injected intraperitoneally with PBS. Five days after the initial injections, each of the mice was injected with a live tumor challenge (5×10^6 of 2C3 B-cell lymphoma). Splenocytes were obtained form the tumor-challenged mice at the eighth day after the initial injections. The collected splenocytes were stimulated with killed 2C3 cells in vitro for five days. Effector cells were harvested from this preparation after five days of incubation. The effector cells were used in the 51Cr-release cytotoxic T lymphocyte (CTL) assay according to the procedure published in Chakrabarti D. and Ghosh S. K.: Cellular Immunology 144:445-464, 1996; Santra S. and Ghosh S. K.: cancer Immunol. Immunotherpy, 44:291-300, 1997; Laxmanan S., Stuart G. W. and Ghosh S. K. Ghosh, Cancer Immunol. Immunotherapy, 50:437-444, 2001; So-Yon Lim and Swapan K. Ghosh, Immunology, 110:482-492, 2003.

Another data set has as its system phthalate. The data set is described as follows: Anti-phthalate antibody response by ELISA on phthalate-BSA coated plates. Format: in vivo. To be noted: BALB/c mice primed intraperitoneally with phthalate-KLH emulsified in adjuvant, boosters at 10-day intervals, FIG. 6. On the procedure: Experimental BALB/c mice (n=6) were grouped and primed intraperitoneally with phthalate-KLH conjugates emulsified in each adjuvant. Control groups of mice were immunized with phosphate buffered saline (PBS). Boosters were given at 10-day intervals. The mice were bled through retro-orbital veins five days after each immunization. (reference describing this type of experiments: So-Yon Lim and Swapan K. Ghosh, Immunology, 110:482-492, 2003)
ELISA was performed to assess anti-phthalate humoral responses on phthalate-BSA coated plates.
(In an ELISA, binding on a coated surface is turned into a signal by an enzyme label.)

The structures appear in SMILES notation.

For the molecule `CC(C)CCC[C@@H](C)CCC[C@@H](C)CCCC(C)CCO` (stereo partly drawn) [phytanol, 3,7,11,15-tetramethyl-1-hexadecanol], in the data set with BALB/c mice [1] (mouse, in vivo), the granuloma result is on record as “no granuloma” and the splenomegaly entry is reported as “none”. Further, the LD50 in the data set on BALB/c mice [2] was over 40 mg/mL. In addition, the “anti-DNA response (autoimmune response)” value in the data set on DNA (mouse, in vivo) is “statistically insignificant anti-DNA response”. Moreover, in the data set on 2C3 B-cell lymphoma, the “induction of tumor-specific killer T cells” value is recorded as “induction of tumor-specific killer T cells”. The anti-phthalate humoral response result in the data set on phthalate is “better than commonly used CFA/IFA and is as good as commercially available Ribi Adjuvant system (RAS)”.

As for `C/C(=C\CO)CCC[C@H](C)CCC[C@H](C)CCCC(C)C` [phytol], the granuloma entry in the data set on BALB/c mice [1] (BALB/c mice, local granuloma) is “milder than CFA”. Also, the splenomegaly entry is on record as “comparable splenomegaly” with BALB/c mice [1] (BALB/c mice, spleens, FIGS. 3A-3F) and “milder than CFA” with BALB/c mice [1] (BALB/c mice, spleens, FIGS. 3A-3F, listed as Phytol). The molecule also yielded an LD50 in the data set on BALB/c mice [2] of 40 mg/mL. Also, in the data set on DNA (mice primed with phthalate-KLH in the adjuvant, FIG. 5), the “anti-DNA response (autoimmune response)” value is listed as “statistically insignificant anti-DNA response”. Moreover, the “induction of tumor-specific killer T cells” value in the data set with 2C3 B-cell lymphoma is recorded as “induction of tumor-specific killer T cells”.
